From patent US20150125915A1, “Method for Producing Lactic Acid” (Kao Corporation, priority 2012, published 2015)

What was measured:
[1] = test system: Rhizopus oryzae NBRC 4785; test: Evaluation of ability to produce lactic acid-2, strain NBRC 4785; format: cell-based; conditions: 0.5% (w/v) at spore germination, control of the strain without surfactant = 100
Protocol: (§1) (1) Spore suspensions were prepared in the same way as in Production Example 1 using Rhizopus oryzae NBRC 4707, NBRC 4785, NBRC 5384 (=JCM14625), and NBRC 5418 strains obtained from a culture collection NBRC.
(§2) (2) Mycelia were prepared from the spores of each strain under the same conditions as in Production Example 2 involving stirring at 100 rpm using 60 mL of a PDB medium non-supplemented or supplemented with 0.5% (w/v) (final concentration) of the surfactant sorbitan monolaurate (Rheodol(R) SP-L10, manufactured by Kao Corp.).
(§3) (3) The total amount of the fungus bodies obtained in (2) was inoculated to 100 mL of an inorganic culture medium under the same conditions as in Production Example 3 to grow the mycelia. […]
(§4) 30 g of the prepared wet fungus bodies of each strain of the genus Rhizopus was inoculated to 100 mL of an inorganic culture medium for lactic acid production evaluation (composition: 12.5% glucose, 0.1% ammonium sulfate, 0.06% potassium dihydrogen phosphate, 0.025% magnesium sulfate heptahydrate, 0.009% zinc sulfate heptahydrate, and 6.25% calcium carbonate; all the concentrations mean % (w/v)) applied to a 500-mL Erlenmeyer flask, and then cultured at 33.5° C. with stirring at 170 rpm. The production rate of lactic acid was determined by the same procedures as in Test Example 2. […]

[2] = test system: fungus of the genus Rhizopus; test: Evaluation of ability to produce lactic acid by repetitive use of fungus body; format: cell-based; conditions: 0.5% (w/v) at germination, relative to control without surfactant in the first repetition
Protocol: Mycelia of a fungus of the genus Rhizopus were prepared in a medium non-supplemented with or containing 0.5% (w/v) (final concentration) of the surfactant sorbitan monolaurate (Rheodol(R) SP-L10) by the same procedures as in Test Example 4(2) and then cultured by the same procedures as in Test Example 4(3). The obtained fungus bodies were recovered by the same procedures as in Test Example 5(4). Subsequently, 25 g of the wet fungus bodies was cultured for 4 hours in an inorganic culture medium for lactic acid production evaluation by the same procedures as in Test Example 5. The production rate of lactic acid was determined. The same procedures of fungus body recovery and culture were repeated, and the production rate of lactic acid was determined at each run (the number of repetitions: 3). The production rate of lactic acid at each run was calculated as a relative value to the production rate of lactic acid under the control conditions (in the absence of the surfactant) in the first repetition. The concentration of lactic acid (unit: g of lactic acid/L of medium) in the supernatant sample of each culture medium was measured according to Reference Example 1 and divided by a time (unit: hr) required for change in lactic acid concentration to calculate the production rate of lactic acid per unit time (unit: g of lactic acid/L/hr). In addition, a relative value to the production rate of lactic acid under control conditions in each Production Example was determined.

[3] = test system: Rhizopus oryzae NBRC 5384 (=JCM14625); test: Evaluation of ability to produce lactic acid-2, strain NBRC 5384; format: cell-based; conditions: 0.5% (w/v) at spore germination, control of the strain without surfactant = 100
Protocol: as §1, §2, §3, §4

[4] = test system: Rhizopus oryzae NBRC 5418; test: Evaluation of ability to produce lactic acid-2, strain NBRC 5418; format: cell-based; conditions: 0.5% (w/v) at spore germination, control of the strain without surfactant = 100
Protocol: as §1, §2, §3, §4

[5] = test system: fungus of the genus Rhizopus; test: Evaluation of ability to produce lactic acid-4 (surfactant added to the lactic acid production medium); format: cell-based; conditions: for Production rate of lactic acid (relative value): mycelia prepared with 0.5% (w/v), non-supplemented = 100
Protocol: Specifically, the mycelia of a fungus of the genus Rhizopus were prepared by the method of Production Example 2 using the surfactant and then grown by the method of Production Example 3. 6.0 g of the obtained wet fungus bodies of the genus Rhizopus was inoculated to 40 mL of an inorganic culture medium for lactic acid production evaluation (composition: 8.0% glucose, 0.1% ammonium sulfate, 0.06% potassium dihydrogen phosphate, 0.025% magnesium sulfate heptahydrate, 0.009% zinc sulfate heptahydrate, and 5.0% calcium carbonate; all the concentrations mean % (w/v)) applied to a 200-mL Erlenmeyer flask, and then cultured at 35° C. with stirring at 170 rpm. The supernatant of the culture medium was recovered every 2 hours from 30 minutes after the fungus body inoculation. Glucose and lactic acid were quantified by the procedures described later in Reference Example 1. A relative value of the production rate of lactic acid was determined on the basis of the calculation method described in Reference Example 2.
Mycelia of a fungus of the genus Rhizopus were prepared in a medium containing 0.5% (w/v) (final concentration) of sorbitan monolaurate (Rheodol(R) SP-L10) by the same procedures as in Production Example 2 and then cultured by the same procedures as in Production Example 3. The fungus bodies were cultured by the sane procedures as in Test Example 2 and evaluated for its production rate of lactic acid. In this respect, the inorganic medium for lactic acid production evaluation was non-supplemented or supplemented with 0.1% (w/v), 0.2% (w/v), 0.5% (w/v), or 1% (w/v) (final concentration) of Rheodol(R) SP-L10. The amount of lactic acid was measured at 4 hours and 8.5 hours of the culture to calculate the production rate of lactic acid. The production rate of lactic acid was reduced in the medium supplemented with 0.1% (w/v) or higher of Rheodol(R) SP-L10 during lactic acid production.
The concentration of lactic acid (unit: g of lactic acid/L of medium) in the supernatant sample of each culture medium was measured according to Reference Example 1 and divided by a time (unit: hr) required for change in lactic acid concentration to calculate the production rate of lactic acid per unit time (unit: g of lactic acid/L/hr). In addition, a relative value to the production rate of lactic acid under control conditions in each Production Example was determined.

[6] = test system: Rhizopus oryzae NBRC 4707; test: Evaluation of ability to produce lactic acid-2, strain NBRC 4707; format: cell-based; conditions: 0.5% (w/v) at spore germination, control of the strain without surfactant = 100
Protocol: as §1, §2, §3, §4

[7] = Evaluation of foaming property by the inversion stirring method; format: physicochemical
Protocol: Each surfactant used in Test Example 2 was evaluated for its foaming properties by the inversion stirring method. 100 mL of a PDB medium non-supplemented or supplemented with 0.5% (w/v) (final concentration) of a surfactant was added to a graduated cylindrical container of 50 mm in diameter and then inversion-stirred for 300 seconds using a flat propeller while the propeller was inverted every 6 seconds at 1000 rpm. 30 seconds after the completion of stirring, the volume of foam in the medium was measured.

Sorbitan monolaurate
Production rate of lactic acid (relative value) [1]: 170 relative value | Production rate of lactic acid (relative value) ([2]; repetition 1): 173 relative value | Production rate of lactic acid (relative value) ([2]; repetition 2): 170 relative value | Production rate of lactic acid (relative value) ([2]; repetition 3): 167 relative value | Production rate of lactic acid (relative value) [3]: 130 relative value | Production rate of lactic acid (relative value) [4]: 135 relative value | Production rate of lactic acid (relative value) ([5]; 0.1% w/v added to lactic acid production medium): 93 relative value | Production rate of lactic acid (relative value) ([5]; 0.2% w/v added to lactic acid production medium): 67 relative value | Production rate of lactic acid (relative value) ([5]; 0.5% w/v added to lactic acid production medium): 4 relative value | Production rate of lactic acid (relative value) ([5]; 1% w/v added to lactic acid production medium): 0 relative value | Production rate of lactic acid (in words) ([5]; medium supplemented with 0.1% (w/v) or higher during lactic acid production): reduced | Production rate of lactic acid (relative value) [6]: 135 relative value | Volume of foam relative to the volume of foam in the absence of the surfactant (in words) ([7]; 0.5% (w/v) in PDB medium): twice or less | Volume of foam (relative value) ([7]; 0.5% (w/v) surfactant in PDB medium, 30 seconds after stirring, foam in the absence of the surfactant = 100): 150 relative value
